Numbers after ± are expanded uncertainties.
Assay: xn = mol fraction of the nth substance listed
Conditions: 298.15 K, 101 kPa, Liquid

C1COCO1 [1,3-dioxolane] + CCCCOC(C)=O
mass density (x1 = 0.1484): 890.7 ± 0.7 kg/m3 | viscosity (x1 = 0.1484): 0.621 ± 0.011 mPa·s | mass density (x1 = 0.2816): 906.9 ± 0.7 kg/m3 | viscosity (x1 = 0.2816): 0.599 ± 0.011 mPa·s | mass density (x1 = 0.4019): 923.3 ± 0.7 kg/m3 | viscosity (x1 = 0.4019): 0.588 ± 0.011 mPa·s | mass density (x1 = 0.5111): 940.3 ± 0.8 kg/m3 | viscosity (x1 = 0.5111): 0.583 ± 0.011 mPa·s | mass density (x1 = 0.6106): 957.8 ± 0.8 kg/m3 | viscosity (x1 = 0.6106): 0.577 ± 0.011 mPa·s | mass density (x1 = 0.7017): 976.1 ± 0.8 kg/m3 | viscosity (x1 = 0.7017): 0.571 ± 0.01 mPa·s | mass density (x1 = 0.7853): 995.2 ± 0.8 kg/m3 | viscosity (x1 = 0.7853): 0.565 ± 0.01 mPa·s | mass density (x1 = 0.8625): 1015 ± 0.8 kg/m3 | viscosity (x1 = 0.8625): 0.556 ± 0.01 mPa·s | mass density (x1 = 0.9338): 1035.6 ± 0.9 kg/m3 | viscosity (x1 = 0.9338): 0.544 ± 0.01 mPa·s | mass density (x1 = 1): 1057.1 ± 0.9 kg/m3 | viscosity (x1 = 1): 0.531 ± 0.01 mPa·s

CCCC(=O)O [butanoic acid] + C1COCO1
mass density (x2 = 0): 952.8 ± 0.8 kg/m3 | viscosity (x2 = 0): 1.396 ± 0.023 mPa·s | mass density (x2 = 0.1167): 963.1 ± 0.8 kg/m3 | viscosity (x2 = 0.1167): 1.297 ± 0.021 mPa·s | mass density (x2 = 0.2292): 973.7 ± 0.8 kg/m3 | viscosity (x2 = 0.2292): 1.202 ± 0.02 mPa·s | mass density (x2 = 0.3376): 984.3 ± 0.8 kg/m3 | viscosity (x2 = 0.3376): 1.111 ± 0.019 mPa·s | mass density (x2 = 0.4422): 995.3 ± 0.8 kg/m3 | viscosity (x2 = 0.4422): 1.023 ± 0.017 mPa·s | mass density (x2 = 0.5432): 1006.1 ± 0.8 kg/m3 | viscosity (x2 = 0.5432): 0.938 ± 0.016 mPa·s | mass density (x2 = 0.6408): 1016.9 ± 0.8 kg/m3 | viscosity (x2 = 0.6408): 0.854 ± 0.015 mPa·s | mass density (x2 = 0.7351): 1027.2 ± 0.8 kg/m3 | viscosity (x2 = 0.7351): 0.77 ± 0.013 mPa·s | mass density (x2 = 0.8263): 1037.4 ± 0.8 kg/m3 | viscosity (x2 = 0.8263): 0.688 ± 0.012 mPa·s | mass density (x2 = 0.9146): 1047.3 ± 0.9 kg/m3 | viscosity (x2 = 0.9146): 0.608 ± 0.011 mPa·s

CCCC(=O)O [butanoic acid] + C1COCCO1
mass density (x2 = 0): 952.8 ± 0.8 kg/m3 | viscosity (x2 = 0): 1.396 ± 0.023 mPa·s | mass density (x2 = 0.1): 961.7 ± 0.8 kg/m3 | viscosity (x2 = 0.1): 1.504 ± 0.025 mPa·s | mass density (x2 = 0.2): 970.3 ± 0.8 kg/m3 | viscosity (x2 = 0.2): 1.57 ± 0.026 mPa·s | mass density (x2 = 0.3): 978.4 ± 0.8 kg/m3 | viscosity (x2 = 0.3): 1.587 ± 0.026 mPa·s | mass density (x2 = 0.4): 986.1 ± 0.8 kg/m3 | viscosity (x2 = 0.4): 1.572 ± 0.026 mPa·s | mass density (x2 = 0.5): 993.4 ± 0.8 kg/m3 | viscosity (x2 = 0.5): 1.507 ± 0.025 mPa·s | mass density (x2 = 0.6): 1000.2 ± 0.8 kg/m3 | viscosity (x2 = 0.6): 1.443 ± 0.024 mPa·s | mass density (x2 = 0.7): 1006.8 ± 0.8 kg/m3 | viscosity (x2 = 0.7): 1.362 ± 0.022 mPa·s | mass density (x2 = 0.8): 1013.1 ± 0.8 kg/m3 | viscosity (x2 = 0.8): 1.293 ± 0.021 mPa·s | mass density (x2 = 0.9): 1019.4 ± 0.8 kg/m3 | viscosity (x2 = 0.9): 1.241 ± 0.021 mPa·s

C1COCCO1 [1,4-dioxane] + CCCC(=O)O
mass density (x1 = 1): 1026.5 ± 0.8 kg/m3 | viscosity (x1 = 1): 1.196 ± 0.02 mPa·s

CCCCOC(C)=O [butyl ethanoate] + C1COCCO1
mass density (x2 = 0): 874.4 ± 0.7 kg/m3 | viscosity (x2 = 0): 0.668 ± 0.012 mPa·s | mass density (x2 = 0.1278): 887.5 ± 0.7 kg/m3 | viscosity (x2 = 0.1278): 0.682 ± 0.012 mPa·s | mass density (x2 = 0.2479): 901 ± 0.7 kg/m3 | viscosity (x2 = 0.2479): 0.692 ± 0.012 mPa·s | mass density (x2 = 0.361): 914.9 ± 0.7 kg/m3 | viscosity (x2 = 0.361): 0.708 ± 0.013 mPa·s | mass density (x2 = 0.4678): 929.2 ± 0.7 kg/m3 | viscosity (x2 = 0.4678): 0.739 ± 0.013 mPa·s | mass density (x2 = 0.5687): 944.1 ± 0.8 kg/m3 | viscosity (x2 = 0.5687): 0.779 ± 0.014 mPa·s | mass density (x2 = 0.6641): 959.4 ± 0.8 kg/m3 | viscosity (x2 = 0.6641): 0.822 ± 0.014 mPa·s | mass density (x2 = 0.7547): 975.3 ± 0.8 kg/m3 | viscosity (x2 = 0.7547): 0.866 ± 0.015 mPa·s | mass density (x2 = 0.8406): 991.8 ± 0.8 kg/m3 | viscosity (x2 = 0.8406): 0.939 ± 0.016 mPa·s | mass density (x2 = 0.9223): 1008.9 ± 0.8 kg/m3 | viscosity (x2 = 0.9223): 1.035 ± 0.017 mPa·s

C1COCO1 [1,3-dioxolane] + CCCC(=O)O
mass density (x1 = 1): 1057.1 ± 0.9 kg/m3 | viscosity (x1 = 1): 0.531 ± 0.01 mPa·s

CCCCN [1-butanamine] + C1COCO1
mass density (x2 = 0): 731.9 ± 0.6 kg/m3 | viscosity (x2 = 0): 0.493 ± 0.009 mPa·s | mass density (x2 = 0.1001): 755.1 ± 0.6 kg/m3 | viscosity (x2 = 0.1001): 0.477 ± 0.009 mPa·s | mass density (x2 = 0.2001): 779.6 ± 0.6 kg/m3 | viscosity (x2 = 0.2001): 0.463 ± 0.009 mPa·s | mass density (x2 = 0.3002): 805.8 ± 0.6 kg/m3 | viscosity (x2 = 0.3002): 0.458 ± 0.009 mPa·s | mass density (x2 = 0.4002): 833.8 ± 0.7 kg/m3 | viscosity (x2 = 0.4002): 0.455 ± 0.009 mPa·s | mass density (x2 = 0.5002): 864.1 ± 0.7 kg/m3 | viscosity (x2 = 0.5002): 0.456 ± 0.009 mPa·s | mass density (x2 = 0.6002): 896.8 ± 0.7 kg/m3 | viscosity (x2 = 0.6002): 0.464 ± 0.009 mPa·s | mass density (x2 = 0.7002): 932.1 ± 0.8 kg/m3 | viscosity (x2 = 0.7002): 0.478 ± 0.009 mPa·s | mass density (x2 = 0.8001): 970.3 ± 0.8 kg/m3 | viscosity (x2 = 0.8001): 0.496 ± 0.009 mPa·s | mass density (x2 = 0.9001): 1011.8 ± 0.8 kg/m3 | viscosity (x2 = 0.9001): 0.513 ± 0.01 mPa·s

C1COCCO1 [1,4-dioxane] + CCCCN
mass density (x1 = 1): 1026.5 ± 0.8 kg/m3 | viscosity (x1 = 1): 1.196 ± 0.02 mPa·s

C1COCO1 [1,3-dioxolane] + CCC(C)=O
mass density (x1 = 0.0976): 818.9 ± 0.6 kg/m3 | viscosity (x1 = 0.0976): 0.384 ± 0.008 mPa·s | mass density (x1 = 0.1957): 840.5 ± 0.7 kg/m3 | viscosity (x1 = 0.1957): 0.397 ± 0.008 mPa·s | mass density (x1 = 0.2944): 863.1 ± 0.7 kg/m3 | viscosity (x1 = 0.2944): 0.411 ± 0.008 mPa·s | mass density (x1 = 0.3935): 886.8 ± 0.7 kg/m3 | viscosity (x1 = 0.3935): 0.426 ± 0.008 mPa·s | mass density (x1 = 0.4933): 911.8 ± 0.7 kg/m3 | viscosity (x1 = 0.4933): 0.441 ± 0.009 mPa·s | mass density (x1 = 0.5935): 938.1 ± 0.8 kg/m3 | viscosity (x1 = 0.5935): 0.456 ± 0.009 mPa·s | mass density (x1 = 0.6943): 965.5 ± 0.8 kg/m3 | viscosity (x1 = 0.6943): 0.473 ± 0.009 mPa·s | mass density (x1 = 0.7956): 994.2 ± 0.8 kg/m3 | viscosity (x1 = 0.7956): 0.491 ± 0.009 mPa·s | mass density (x1 = 0.8975): 1024.5 ± 0.8 kg/m3 | viscosity (x1 = 0.8975): 0.51 ± 0.01 mPa·s | mass density (x1 = 1): 1057.1 ± 0.9 kg/m3 | viscosity (x1 = 1): 0.531 ± 0.01 mPa·s

CCCCN [1-butanamine] + C1COCCO1
mass density (x2 = 0): 731.9 ± 0.6 kg/m3 | viscosity (x2 = 0): 0.493 ± 0.009 mPa·s | mass density (x2 = 0.0855): 753.4 ± 0.6 kg/m3 | viscosity (x2 = 0.0855): 0.509 ± 0.01 mPa·s | mass density (x2 = 0.1738): 776.1 ± 0.6 kg/m3 | viscosity (x2 = 0.1738): 0.524 ± 0.01 mPa·s | mass density (x2 = 0.265): 800.1 ± 0.6 kg/m3 | viscosity (x2 = 0.265): 0.541 ± 0.01 mPa·s | mass density (x2 = 0.3594): 825.8 ± 0.7 kg/m3 | viscosity (x2 = 0.3594): 0.56 ± 0.01 mPa·s | mass density (x2 = 0.4569): 853.3 ± 0.7 kg/m3 | viscosity (x2 = 0.4569): 0.59 ± 0.011 mPa·s | mass density (x2 = 0.5579): 882.8 ± 0.7 kg/m3 | viscosity (x2 = 0.5579): 0.637 ± 0.011 mPa·s | mass density (x2 = 0.6625): 914.7 ± 0.7 kg/m3 | viscosity (x2 = 0.6625): 0.699 ± 0.012 mPa·s | mass density (x2 = 0.7709): 949.2 ± 0.8 kg/m3 | viscosity (x2 = 0.7709): 0.792 ± 0.014 mPa·s | mass density (x2 = 0.8834): 986.4 ± 0.8 kg/m3 | viscosity (x2 = 0.8834): 0.941 ± 0.016 mPa·s
